Data published in patent US12186377B2, “Modulation of oxidative stress and amino acid metabolism for the treatment or prevention of diseases and disorders” (NEW YORK UNIVERSITY, priority 2019, dated 2025).
Entries after “also recorded” stand apart in the source; their conditions may differ. Structures can show the parent of a compound that is named as a salt.

Assays:
[1] = test system: wildtype and Keap1 mutant Kras^G12D/+;p53^−/− lung adenocarcinoma cell lines; experiment: Cell proliferation assay (crystal violet), drug or amino acid deprived media; assay type: cell-based, mouse; conditions: for sensitivity of Keap1 wildtype cells to NEAA depletion under oxidant treatment: wildtype cells treated with oxidative stress agents; for rescue of cell growth under serine deprived conditions by supplementation: 0.5 mM NAC, 50 μM Trolox, 3 mM formate, 16 μM thymidine, FIG. 7A
Procedure: (§1) For cell proliferation assays conducted under different drug or media conditions as indicated, cells growing in DMEM were trypsinized, counted and plated into 12 well plate dishes (BD/Falcon) in 1 mL of RPMI media. […] For deprivation experiments, cells were washed with PBS and media was replaced with 1 mL of complete RPMI or RPMI lacking indicated amino acid and supplemented with 10% dialyzed FBS and cells were re-treated with indicated drugs. RPMI was prepared from a powder mix without amino acids (US Biological) according to manufacturer's instructions. All other amino acids besides those indicated were added to the RPMI mixture in the same concentrations present in RPMI-1640 formulation (Cellgro, Corning). Proliferation experiments were carried out for 5 days post drug treatment and collected by staining. Cells were stained with a 0.5% crystal violet (Fisher) solution in 20% methanol. Plates were then washed, dried, and crystal violet was eluted in 400 μL of 10% acetic acid.

[2] = test system: wildtype vs Keap1 mutant cells; experiment: GC/MS analysis of polar metabolites and stable isotope tracing in cells; assay type: cell-based, mouse; conditions: for serine and glycine synthesis from [U^13C]-D glucose: serine depleted conditions, 250 nM CB-839 or 6 mM glutamate, FIG. 7E
Procedure: For analysis of cells, 1×10^5 cells were seeded in 1 mL of RPMI-1640 in 12 well plates. […] Media was then replaced with fresh RPMI lacking serine or asparagine where indicated and supplement with 10% FBS. For tracing experiments media contained 11 mM [U^13C]-D-glucose, 2 mM [U^13C]-L-glutamine, 2 mM [α^15N]-L-glutamine, or 285 μM [U^13C]-L-serine (Cambridge Isotope Laboratory). Cells were treated with 250 nM CB-839 and cultured for 1-3 hours. Cells were washed 2× in ice cold saline and then collected by scraping in 250 μL of 80% (v/v) of ice cold methanol containing 1.4 μg/mL norvaline (Sigma Aldrich). Samples were vortexed for 10 min at 4° C. and then centrifuged at max speed for 5 minutes. Supernatant was transferred to fresh tubes and then dried in a speed vac. For analysis of mouse plasma, whole blood was collected at the time of sacrifice by a retro-orbital bleed with heparin coated capillary tubes (Fisher) into EDTA containing microcentrifuge tubes. Whole blood was centrifuged for 5 minutes at 1600 g. Cleared plasma was transferred to fresh tubes and 4 μL of plasma was then aliquoted and used for analysis. 80% (v/v) methanol containing 1.4 μg/mL norvaline was added to plasma and samples were then dried in a speed vac. […] After derivatization, samples were analyzed by GC-MS using an HP-5MS column (Agilent Technologies) in an Agilent Intuvo gas chromatograph coupled to an Agilent 5997B mass spectrometer. […]
The MS system operated under electron impact ionization at 70 eV and the MS source and quadrupole were held at 230° C. and 150° C. respectively the detector was used in scanning mode, and the scanned ion range was 10-650 m/z. Mass isotopomer distributions were determined by integrating the appropriate ion fragments for each metabolite (Lewis et al., 2014, Molecular cell 55, 253-263) using MATLAB (Mathworks) and an algorithm adapted from Fernandez and colleagues (Fernandez et al., 1996, Journal of mass spectrometry: JMS 31, 255-262) that corrects for natural abundance.

[3] = test system: wildtype vs Keap1 mutant Kras^G12D/+;p53^−/− lung adenocarcinoma cells; experiment: Cell viability assay (cell titer glo); assay type: cell-based, mouse
Procedure: For cell viability assays cells were plated in a white, opaque 96-well plate with clear bottom at a density of 1000 cells/well in RPMI or RPMI with modified amino acid content. After attachment, CB-839 (Selleck) or L-Asparaginase (AbCam) were added at the indicated concentrations. After 3 days, cell viability in the presence of all compounds was assessed by cell titer glo (Promega).

[4] = test system: wildtype vs Keap1 mutant Kras^G12D/+;p53^−/− lung adenocarcinoma cells; conditions: previously shown (Romero 2017; Sayin 2017); cited from earlier work
[5] = test system: wildtype subcutaneous tumors; experiment: Subcutaneous tumor growth, wildtype tumors; assay type: in vivo, C57B6 mice
Procedure: (§2) 5×10^5 cells were implanted subcutaneously into C57B6 mice. Tumor volume was measured by caliper and volume was calculated (Length×Width^2×0.5). After tumor establishment phase (tumor volume ˜50 mm^3), animals were randomized and assigned to a treatment group. Animals either received an amino acid control diet, diet lacking both serine and glycine, or a diet lacking asparagine (Envigo and TestDiet), 200 mg/kg CB-839 or vehicle (Calithera) twice daily administered through oral gavage as previously described (Davidson et al., 2016, Cell Metab 23, 517-528), 60 U of L-Asparaginase (Abcam) or vehicle once daily administered through intraperitoneal injection as before (Knott et al., 2018, Nature 554, 378-381) or some treatment combination as indicated.

[6] = test system: Keap1 mutant subcutaneous tumors; experiment: Subcutaneous tumor growth, Keap1 mutant tumors; assay type: in vivo, C57B6 mice
Procedure: as §2

KPKJ wt and KPKJ V cells = experiment: Cell ROS level, DCFCA assay (FACS); assay type: cell-based, mouse; conditions: positive control
Procedure: TET+ stands for 3 days treatment of 1 μg/ml doxycycline for inducing shRNA expression. G6PD knockdown induces more ROS in Keap1 wildtype cells. Keap1 mutants show lower cell ROS. ROS level was measured by DCFCA assay. G6PD KO induces accumulation of ROS in Keap1 wildtype cells. Measured by FACS (DCFCA assay.) TET treatment 4 day before measuring. H2O2 positive control is about 200-fold increase.

[7] = test system: murine Kras^G12D/+;p53^−/− pancreatic ductal adenocarcinoma cell line; experiment: Proliferation / viability of pancreatic cancer cell line; assay type: cell-based, mouse; conditions: pre-treated with 1 μM KI696; 0.036 U/mL L-asparaginase 3 days, FIG. 5C, 5D
Procedure: RPMI was prepared from a powder mix without amino acids (US Biological) according to manufacturer's instructions. All other amino acids besides those indicated were added to the RPMI mixture in the same concentrations present in RPMI-1640 formulation (Cellgro, Corning). Proliferation experiments were carried out for 5 days post drug treatment and collected by staining. Cells were stained with a 0.5% crystal violet (Fisher) solution in 20% methanol. Plates were then washed, dried, and crystal violet was eluted in 400 μL of 10% acetic acid.

[8] = test system: LKR (Kras^G12D/+;p53^+/+) cell lines; experiment: Cell proliferation assay in media lacking serine or asparagine, LKR lines; assay type: cell-based, mouse; conditions: pre-treated with KI696 (11 μM printed elsewhere in the source), FIG. 5B
Procedure: as §1

[9] = Davies et al., 2016; cited from earlier work
[10] = test system: KPKJ Vector (Keap1 KO) cells transduced with sgG6pd and sgPGD; experiment: Colony formation assay, metabolite rescue of G6PD KO / PGD KO cells; assay type: cell-based, mouse; conditions: FIG. 18
Source text: Colony formation assay of KPKJ Vector (Keap1 KO) cells transduced with sgTom, sgG6pd and sgPGD, and rescued with several metabolites.

KP or KPK cells = experiment: Cell viability with exogenous heme/hemin after Alas1 knock-down/out; assay type: cell-based, mouse
Source text: FIG. 36A depicts the cell viability of KP or KPK cells with guide RNAs against Alas1 or control in the presence of increasing amounts of Heme/Hemin.
FIG. 37A depicts a western blot validation of control or Alas1 targeting shRNAs in KP/KPK cells. FIG. 37B depicts the relative viability of KP/KPK cells in response to doxycycline inducible shRNA knockdown of Alas1.

KPK cells = experiment: Western blot of Alas1 and Hmox1 with exogenous heme/hemin; assay type: cell-based, mouse; conditions: increasing amounts of exogenous heme/hemin, FIG. 36B
[11] = test system: cell lines with different genetic status of Keap1; experiment: Relative viability in response to succinylacetone; assay type: cell-based; conditions: dominant negative Keap1 alleles vs Keap1 mutant cells, FIG. 35B
Source text: FIG. 35A depicts a western blot validation of various Keap1 cDNA constructs including WT and multiple mutants found in LUAD. FIG. 35B depicts the relative viability of cell lines with different genetic status of Keap1 in response to different concentrations of succinylacetone, an inhibitor of Alas1.

[12] = GC/MS plasma amino acid levels in tumor-bearing mice; assay type: in vivo; conditions: L-asparaginase vs asparagine deficient diet, FIG. 11A
Procedure: For analysis of cells, 1×10^5 cells were seeded in 1 mL of RPMI-1640 in 12 well plates. […] Media was then replaced with fresh RPMI lacking serine or asparagine where indicated and supplement with 10% FBS. For tracing experiments media contained 11 mM [U^13C]-D-glucose, 2 mM [U^13C]-L-glutamine, 2 mM [α^15N]-L-glutamine, or 285 μM [U^13C]-L-serine (Cambridge Isotope Laboratory). Cells were treated with 250 nM CB-839 and cultured for 1-3 hours. Cells were washed 2× in ice cold saline and then collected by scraping in 250 μL of 80% (v/v) of ice cold methanol containing 1.4 μg/mL norvaline (Sigma Aldrich). Samples were vortexed for 10 min at 4° C. and then centrifuged at max speed for 5 minutes. Supernatant was transferred to fresh tubes and then dried in a speed vac. For analysis of mouse plasma, whole blood was collected at the time of sacrifice by a retro-orbital bleed with heparin coated capillary tubes (Fisher) into EDTA containing microcentrifuge tubes. Whole blood was centrifuged for 5 minutes at 1600 g. Cleared plasma was transferred to fresh tubes and 4 μL of plasma was then aliquoted and used for analysis. […] After derivatization, samples were analyzed by GC-MS using an HP-5MS column (Agilent Technologies) in an Agilent Intuvo gas chromatograph coupled to an Agilent 5997B mass spectrometer. […]

[13] = 60 U once daily intraperitoneal, FIG. 9B

Compound: CC(=O)OC[C@H]1O[C@@H]([S-])[C@H](OC(C)=O)[C@@H](OC(C)=O)[C@@H]1OC(C)=O.CCP(CC)CC.[Au+] [Auranofin, 3,4,5-triacetyloxy-6-(acetyloxymethyl) oxane-2-thiolate; triethylphosphanium]
- sensitivity of Keap1 wildtype cells to NEAA depletion under oxidant treatment [1]: sensitized to NEAA depletion

Compound: CCCCS(=N)(=O)CCC(N)C(=O)O [BSO, L-buthionine-sulfoximine]
- sensitivity of Keap1 wildtype cells to NEAA depletion under oxidant treatment [1]: sensitized to NEAA depletion

Compound: O=C(Cc1cccc(OC(F)(F)F)c1)Nc1ccc(CCCCc2nnc(NC(=O)Cc3ccccn3)s2)nn1 [CB-839]
- serine and glycine synthesis from [U^13C]-D glucose [2]: decrease in both serine and glycine synthesis
- effect of very low doses of CB-839 alone on cell growth ([3]; CB-839 alone): do not affect cell growth
- sensitivity to very low doses of CB-839 with L-asparaginase ([3]; Keap1 mutant cells, 0.1 U/mL L-asparaginase, FIG. 6I): increased sensitivity
- sensitivity to very low doses of CB-839 in reduced serine ([3]; Keap1 mutant cells, serine at 10% of normal concentration, FIG. 6J): increased sensitivity
- sensitivity of Keap1 mutant cells to CB-839 [4]: highly sensitive
- growth of wildtype tumors, CB-839 alone ([5]; 200 mg/kg twice daily oral gavage, FIG. 9F): no effect on wildtype tumor growth
- growth of wildtype tumors, CB-839 with −SG diet ([5]; diet lacking serine and glycine, FIG. 9F): strong synergistic effect and significantly reduced wildtype tumor growth; also recorded: strongly sensitizes Keap1 wildtype tumors to dietary restriction of serine and glycine
- growth of Keap1 mutant tumors, CB-839 alone ([6]; 200 mg/kg twice daily oral gavage, FIG. 9E): sensitive
- growth of Keap1 mutant tumors, CB-839 with −SG diet ([6]; compared to either monotherapy, FIG. 9E): further reduced Keap1 mutant tumor growth

Compound: COC(=O)/C=C/C(=O)OC [DMF, di-methyl fumarate]
- sensitivity of Keap1 wildtype cells to NEAA depletion under oxidant treatment [1]: sensitized to NEAA depletion

Compound: OO [H2O2]
- cell ROS level increase (KPKJ wt and KPKJ V cells): about 200 fold

Compound: COc1cc([C@@H](CC(=O)O)c2ccc(C)c(CN3C[C@@H](C)Oc4ccccc4S3(=O)=O)c2)cc2nnn(C)c12 [KI696]
- growth upon serine deprivation or L-asparaginase treatment after Nrf2 activation [7]: robust growth suppression
- proliferation in media lacking serine or asparagine, p53 wildtype LKR lines [8]: growth suppression
- pharmacokinetics [9]: prevent its efficient use in vivo

Compound: CC(=O)N[C@@H](CS)C(=O)O [NAC, N-acetyl-L-cysteine]
- G6PD KO rescue (colony formation) [10]: No rescue
- rescue of cell growth under serine deprived conditions by supplementation ([1]; Keap1 mutant cells): did not rescue cell growth

Compound: Cc1c(C)c2c(c(C)c1O)CCC(C)(C(=O)O)O2 (stereo not shown) [Trolox]
- G6PD KO rescue (colony formation) [10]: No rescue
- rescue of cell growth under serine deprived conditions by supplementation ([1]; Keap1 mutant cells): did not rescue cell growth

Compound: O=C(O)CCC(=O)C(=O)O [a-KG]
- G6PD KO rescue (colony formation) [10]: can rescue G6PD KO cells; also recorded: Completely rescue

Compound: C[C@H](N)C(=O)O [alanine]
- proliferation on alanine supplementation ([1]; Keap1 mutant cells, RPMI 10% dialyzed FBS, FIG. 2D): increase in cancer cell proliferation

Compound: O=CO [formate]
- rescue of cell growth under serine deprived conditions by supplementation ([1]; Keap1 mutant cells): complete rescue of cell growth

Compound: N[C@@H](CCC(=O)O)C(=O)O [glutamate]
- G6PD KO rescue (colony formation) [10]: can rescue G6PD KO cells; also recorded: Completely rescue
- intracellular glutamate levels ([2]; Keap1 mutant cells, 500 nM Erastin or 6 mM glutamate, FIG. 6B, 6C): significantly increased intracellular glutamate levels
- serine and glycine synthesis from [U^13C]-D glucose [2]: increase in both serine and glycine synthesis

Compound: C=CC1=C(C)c2cc3[n-]c(cc4[n-]c(cc5nc(cc1n2)C(C)=C5C=C)c(C)c4CCC(=O)O)c(CCC(=O)O)c3C.[Fe+2] [heme/hemin]
- rescue of growth defects after shRNA knockdown of Alas1 (KP or KPK cells; KP/KPK cells, doxycycline inducible shRNA, FIG. 37B): completely rescues any growth defects
- exogenous heme needed to rescue growth (KP or KPK cells; Keap1-mutant (KPK) vs KP cells with guide RNAs against Alas1, FIG. 36A): require higher levels of exogenous heme to rescue growth
- Alas1 protein level (KPK cells): decrease Alas1
- Hmox1 protein level (KPK cells): increase Hmox1

Compound: CC(=O)CC(=O)CCC(=O)O [succinylacetone, 4,6-Dioxoheptanoic acid]
- relative viability in response to succinylacetone [11]: further sensitize Keap1 mutant cells to heme synthesis inhibition

Compound: Cc1cn([C@H]2C[C@H](O)[C@@H](CO)O2)c(=O)[nH]c1=O [thymidine]
- rescue of cell growth under serine deprived conditions by supplementation ([1]; Keap1 mutant cells): complete rescue of cell growth

Compound: L-asparaginase
- relative viability on L-asparaginase treatment ([3]; Keap1 mutant vs wildtype cells, RPMI, 3 days, FIG. 1D): increased sensitivity
- plasma levels of asparagine [12]: more effective at reducing plasma levels of asparagine than the asparagine diet
- growth of wildtype tumors, L-asparaginase [5, 13]: not wildtype tumors
- growth of Keap1 mutant tumors, L-asparaginase [6, 13]: blunted growth
- growth of Keap1 mutant tumors, L-asparaginase alone or with asparagine free diet ([6]; FIG. 9D): strongly blunts the growth
